Where a name gives a salt, the structure may show the parent alone. Blank lines part the entries; values can stand above or below the molecule they belong to.
What was measured:
JNK1 = JNK1 (Homo sapiens, UniProt P45983); assay: JNK1 inhibition; format: biochemical; settings: read-out: inhibition (IC50) with regard to JNK1
[1] = system: Sympathetic neurons from superior cervical ganglia (SCG); assay: Sympathetic neuron culture and survival assay; format: cell-based, rat; settings: at 3 μM; anti NGF antibody induced cell death, MTT after 24 hours
Description: The Ability of the Compounds According to Formula I to Increase the Survival Rate of Neuronal Cells Having Been Induced to Cell Death was Assessed Using the Following Protocol
Cell death is induced at day 4 after plating by exposing the culture to medium containing 10 μg/mL of anti NGF anti-body (Boehringer Mannheim Corp., Indianapolis, Ind.) and no NGF or arabinosine, in the presence or absence of sulfonamide inhibitors. 24 hours after cell death induction, determination of cell viability is performed by incubation of the culture for 1 hour, at 37° C. in 0.5 mg/mL of 3-(4,5-dimethylthiazol-2-yl)-2,5 diphenyl tetrazolium bromide (MTT). After incubation in MTT cells are resuspended in DMSO, transferred to a 96 MTT plate and cell viability is evaluated by measuring optical density at 590 nm.

Male C57BL/6 mice = assay: LPS induced endotoxin shock in mice; format: in vivo; settings: intravenously 15 min before LPS challenge
Description: Endotoxins are the lipopolysaccharides (LPS) constituents of the outer membrane of Gram negative bacteria. […] As LPS is known to stimulate the activation of various MAP kinase pathways, including JNK (35), the ability of JNK inhibitors can be tested after the JNK signaling pathway has been switched on by a LPS challenge.
LPS (S. abortus-Galanos Lab.-) is injected (200 μg/kg, i.v.) to Male C57BL/6 mice to induce endotoxin shock. Compounds according to formula I (0.1, 1, 10 mg/kg) or NaCl ([…]) are injected intravenously (10 mL/kg) 15 min before the LPS challenge. Heparinized blood was obtained from the orbital sinus at different time points after the LPS challenge, and the blood was centrifuged at 9'000 rpm for 10 min at 4° C. to collect supernatent. Measurement of cytokines production such as TNFα and IFNγ by mouse is performed with an ELISA kit such as Duoset® DY410 for TNFα and DY 485 for IFN γ. Other ELISA assays such as described in (36) can be used.

GST-JNK3 = GST-JNK3 (Homo sapiens, UniProt P53779); assay: JNK3 in vitro assay (33P incorporation into c-jun, SPA); format: biochemical
GST-JNK3, sequence (P53779 whole entry): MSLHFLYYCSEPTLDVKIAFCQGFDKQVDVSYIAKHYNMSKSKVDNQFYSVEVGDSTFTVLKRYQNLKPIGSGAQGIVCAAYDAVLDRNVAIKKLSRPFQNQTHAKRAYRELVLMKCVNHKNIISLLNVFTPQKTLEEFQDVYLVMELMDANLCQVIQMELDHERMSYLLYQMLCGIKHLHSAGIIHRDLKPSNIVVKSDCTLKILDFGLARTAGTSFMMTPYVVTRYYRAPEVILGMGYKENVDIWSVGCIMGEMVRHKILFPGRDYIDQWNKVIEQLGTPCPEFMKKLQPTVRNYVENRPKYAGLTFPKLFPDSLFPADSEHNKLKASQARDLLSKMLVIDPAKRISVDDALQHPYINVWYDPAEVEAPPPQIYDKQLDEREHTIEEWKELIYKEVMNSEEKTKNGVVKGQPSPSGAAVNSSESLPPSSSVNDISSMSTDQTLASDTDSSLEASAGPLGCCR
Description: (§1) The phosphorylation of c-jun by JNK2 or JNK3 may be followed by monitoring the incorporation of ^33P into c-jun following the protocol below. The inhibitory activity of the compounds according to formula I, in respect of c-jun phosphorylation through JNK, is determined by calculating the phosphorylation activity of a JNK in the presence or absence of the test compounds according to formula I.
(§2) JNK3 and/or -2 assays are performed in 96 well NM plates: incubation of 0.5 μg of recombinant, pre-activated GST-JNK3 or GST-JNK2 with 1 μg of recombinant, biotinylated GST-c-Jun and 2 μM ^33γ-ATP (2 nCi/μl), in the presence or absence of compounds according to formula I and in a reaction volume of 50 μl containing 50 mM Tris-HCl, pH 8.0; 10 mM MgCl2; 1 mM Dithiothreitol, and 100 μM NaVO4. The incubation is performed for 120 min. at R.T and stopped upon addition of 200 μl of a solution containing 250 μg of Streptavidine-coated SPA beads (Amersham, Inc.)*, 5 mM EDTA, 0.1% Triton X-100 and 50 μM ATP, in phosphate saline buffer. After incubation for 60 minutes at RT, beads are sedimented by centrifugation at 1500×g for 5 minutes, resuspended in 200 μl of PBS containing 5 mM EDTA, 0.1% Triton X-100 and 50 μM ATP and the radioactivity measured in a scintillation β counter, following sedimentation of the beads as described above. By replacing biotinylated GST-c Jun with biotinylated GST-1ATF2 or biotinylated myelin basic protein, this assay may also be used to measure inhibition of pre-activated p38 and ERK MAP Kinases, respectively.

GST-JNK2 = GST-JNK2 (Homo sapiens, UniProt P45984); assay: JNK2 in vitro assay (33P incorporation into c-jun, SPA); format: biochemical
GST-JNK2, sequence (P45984 whole entry): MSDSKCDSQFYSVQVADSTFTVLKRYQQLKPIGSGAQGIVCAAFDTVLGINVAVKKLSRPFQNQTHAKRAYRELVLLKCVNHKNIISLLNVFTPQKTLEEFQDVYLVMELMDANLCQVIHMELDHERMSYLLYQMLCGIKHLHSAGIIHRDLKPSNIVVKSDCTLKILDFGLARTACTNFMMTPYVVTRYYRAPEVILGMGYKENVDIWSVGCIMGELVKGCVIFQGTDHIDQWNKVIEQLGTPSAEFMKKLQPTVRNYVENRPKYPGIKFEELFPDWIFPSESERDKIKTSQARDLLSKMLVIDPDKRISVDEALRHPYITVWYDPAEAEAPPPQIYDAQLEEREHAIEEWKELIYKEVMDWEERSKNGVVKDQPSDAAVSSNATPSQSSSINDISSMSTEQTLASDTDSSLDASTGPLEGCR
Description: as §1, §2

Solubility in water = format: physicochemical; settings: pH 7.4, aqueous buffer, pH of 7.4 at room temperature
Description: The compounds have been assessed in respect of their solubility in water, at a pH of 7.4 at room temperature. In general the solubility of compounds of formula (I) is in a range of at least 50 μg/mL solvent, more preferably of at least 100 μg/mL solvent. For instance compounds (63), (163), (198) display a solubility in water of at least 200 μg/mL solvent.

[2] = system: gerbil bilateral carotid occlusion; assay: Global ischemia in gerbils; format: in vivo; settings: 80 mg/kg
Description: The Ability of the JNK Inhibitors Described in Formula I to Protect Cell Death During a Stroke Event was Assessed Using the Following Protocol:
The gerbil bilateral carotid occlusion is a well-described animal model of acute ischemic stroke and involves relatively easy surgical techniques.
The neuronal degeneration in the hippocampus develops over several days and is often referred as “delayed neuronal death”. In addition, the neurodegeneration observed histologically is obvious and easily quantified (37). Furthermore, the histopathology seen in the gerbil is similar to that observed in the hippocampal CA1 region of the human brain following a cardiac arrest. Behavior observations, such as memory tests, could even be performed in the case of gerbils. This kind of tests for appreciation of the degree of recovery is not easily manageable in other models such as in rat whose learning abilities are much poorer (38).
• Anesthesia with isoflurane (0.5-4%). • The common carotid arteries (left and right) are freed from tissue. • Occlusion of the arteries using Bulldog microclamps during 5 min. • Removal of clamps (reperfusion) • Stabulation of the animals under heating lamp until awake. • Stabulation of the animals in the animalry in individual cages. Sacrifice of the Animals • 7 days after ischemia (Decapitation or overdose of pentobarbital). • Sampling of the brain. […]

[3] = system: IL-2 release by (PMA+Ionomycin)-stimulated Jurkat cells; assay: IL-2 release assay (IL-2 ELISA); format: cell-based; settings: Homo sapiens; PMA + Ionomycine stimulated Jurkat cells
Description: The Ability of the Compounds According to Formula I to Modulate the Inflammatory Response by Inhibiting the Release of IL-2 was Assessed Using the Following Protocol
JNK pathway activation triggers the production of inflammatory cytokines such as IL-2. JNK can be activated by external stimuli such as PMA and Ionomycine and IL-2 production can be measured via an IL-2 ELISA test. Comparative measurements with and without the compounds of the invention according to the following protocol measure the ability of the compounds to prevent to stress-mediated IL-2 release.
Jurkat cells, a human T cell leukemia cell line (American Type Culture Collection # TIB 152) were cultured in RPMI 1640 medium (Gibco, BRL) supplemented with 10% of […] fetal calf serum (FCS), Glutamine and Penstrep. The cell suspension in the medium is diluted to give 2.10^6 cells/mL. The cells were plated (2.10^5 cells/well) on a 96-well plate containing different concentrations of a compound according to formula I (final concentration of compounds, 10, 3, 1, 0.3, 0.1 μM). This mixture is incubated 30 minutes at 37° C. in a humidified CO2 atmosphere. Cells were then treated with 10 μl PMA (Phorbolmyristate-13 Acetate-12)+Ionomycine (0.1 μM and 1 μM final concentration) in all wells except negative control. In wells without compounds, 10 μl of RPMI 2% DMSO (=0.1% final) is added. Cells are incubated 24 hours at 37° C. and then the supernatant harvested (freeze at −20° C. if not used the same day) prior to performing IL-2 ELISA test on the supernatant.
IL-2 release into the medium by (PMA+Iononomycin)-stimulated Jurkat cells, in presence or absence of test compounds may be assayed by ELISA. Following the procedure described below.
Monoclonal anti-human IL-2 antibody (MAB602) (capture), biotinylated anti-human IL-2 antibody (BAF202) (detection) and recombinant human IL-2 (202-IL-010) (standard) from From R&D Systems are used. […]
• 1. […] Optical density is measured using a microtiter plate reader set to 450 nm with correction at 570 nm.

JNK1, sequence (P45983 whole entry, species assumed): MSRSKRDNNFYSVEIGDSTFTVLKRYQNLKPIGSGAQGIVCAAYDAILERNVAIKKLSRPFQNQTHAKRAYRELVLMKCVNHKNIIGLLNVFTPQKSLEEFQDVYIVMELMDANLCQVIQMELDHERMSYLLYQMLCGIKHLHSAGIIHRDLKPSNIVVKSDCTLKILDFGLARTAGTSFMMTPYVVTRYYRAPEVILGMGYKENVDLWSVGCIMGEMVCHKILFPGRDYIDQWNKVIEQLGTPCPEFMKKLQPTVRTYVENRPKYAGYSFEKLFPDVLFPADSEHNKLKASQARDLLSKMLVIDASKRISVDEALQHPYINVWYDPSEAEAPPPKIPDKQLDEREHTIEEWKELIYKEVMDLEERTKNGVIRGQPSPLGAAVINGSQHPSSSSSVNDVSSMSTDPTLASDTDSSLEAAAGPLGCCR

melting point: 288 to 289 °C
SMILES: O=C(NCc1ccc(S(=O)(=O)N2CCC(NCc3ccc(C(F)(F)F)cc3)CC2)s1)c1ccc[nH]c1=O (as salt: HCl) [Example 198, 2-Oxo-N-({5-[(4-{[4-(trifluoromethyl)benzyl]amino}-1-piperidinyl)sulfonyl]-2-thienyl}methyl)-1,2-dihydro-3-pyridinecarboxamide]

IC50 (JNK1): 100 to 700 nM | IC50 (GST-JNK3): < 600 nM | IC50 (GST-JNK2): < 600 nM | solubility (Solubility in water): ≥ 200 µg/mL
SMILES: CCCCCCNC1CCN(S(=O)(=O)c2ccc(CNC(=O)c3ccc(Cl)cc3)s2)CC1 [Example 63, 4-Chloro-N-[(5-{[4-(hexylamino)piperidin-1-yl]sulfonyl}thien-2-yl)methyl]benzamide]
rescue rate of SCG cells [1]: 35% | inhibition of IFNγ production (Male C57BL/6 mice; 1 mg/kg): 65% | inhibition of TNFα production (Male C57BL/6 mice; 10 mg/kg): 40%

IC50 [3]: < 800 nM
SMILES: CCCCNC1CCN(S(=O)(=O)c2ccc(CNC(=O)c3ccc(Cl)cc3)s2)CC1 [Example 68, 4-chloro-N-[(5-{[4-(butylamino)piperidin-1-yl]sulfonyl}thien-2-yl)methyl]benzamide]
inhibition of global ischemia (% inhibition of total lesion) [2]: 64%

IC50 (JNK1): 100 to 700 nM | solubility (Solubility in water): ≥ 200 µg/mL
SMILES: O=C(NCc1ccc(S(=O)(=O)N2CCC(NCc3ccc(C(F)(F)F)cc3)CC2)s1)c1ccc[nH]c1=O [Example 198, 2-Oxo-N-({5-[(4-{[4-(trifluoromethyl)benzyl]amino}-1-piperidinyl)sulfonyl]-2-thienyl}methyl)-1,2-dihydro-3-pyridinecarboxamide]
